# Experiments:
# [1] = tested on: normal human neonatal foreskin epidermal keratinocytes (NHEK-F); test: Cell proliferation inhibition test; assay type: cell-based; settings: Keratinocyte, 72 h, NHEK-F cells, three days incubation, ATPlite or CellTiterGlo, read-out: IC50 (concentration of the compound at which the cell count is reduced by 50%)
# Outline: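 IC50 is the compound level halving cell count relative to untreated wells, with counts from ATP-based luminescence (ATPlite or CellTiterGlo). Readout followed 3 days of compound exposure of overnight-attached neonatal foreskin keratinocytes (2×10^3/well, Humedia-EG2 medium).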
# [2] = tested on: TPA-induced ear edema and acanthosis in Balb/c mice; test: Mouse TPA-induced ear-swelling model; assay type: in vivo; settings: topical, 240 h, 1% w/v solution, 20 μL applied to ear once a day from day 0 to day 9, female Balb/c mice, read-out: Inhibition rate of change in ear thickness on day 10
# Description: Seven-week-old female Balb/c mice (Charles River Laboratories Japan) were used. 20 μL of a 20 ng/mL solution of TPA (Wako Pure Chemical Industries, 162-23591) dissolved in 5% DMSO/acetone was applied to the outer side of the mouse ear on day 0, day 2, day 4, day 7 and day 9 to induce ear edema and acanthosis. The test compound was dissolved in a 5% DMSO/acetone solution (concentration: 1% w/v) and 20 μL of the resulting solution was applied to the outer side of the ear once a day from day 0 to day 9. For the control group, a 5% DMSO/acetone solution was similarly applied. The TPA solution and the test compound solution were mixed and applied on the days for TPA application (day 0, day 2, day 4, day 7 and day 9). The ear thickness was chronologically measured on days 0-4 and days 7-10 using a micrometer (Mitutoyo, MDC-25MJT). The change in ear thickness and the inhibition rate were determined by the following formulas. Change in ear thickness=(ear thickness measured on day 10)−(ear thickness measured on day 0 before TPA application) Inhibition rate (%)=100−(change in ear thickness for test compound group/change in ear thickness for control group)×100
# [3] = tested on: TNFα production in LPS-stimulated Raw264.7 cells; test: TNFα production inhibition test; assay type: cell-based; settings: Mus musculus, test compound 1 μmol/L, LPS 1 μg/mL, 16 hours, ELISA, read-out: Inhibition rate of TNFα production
# Outline: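 Mouse Raw264.7 macrophages were pretreated 1 h with compound at a final 1 μmol/L in 1% FBS medium, then stimulated with LPS at 1 μg/mL. Supernatant TNFα was measured by ELISA after 16 hours. Inhibition (%) is calculated relative to TNFα produced without compound.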
Compound,IC50 [1],inhibition in vivo at 1 % strength [2],inhibition at 1 µM [3]
"O=C(O)c1cc(C(F)(F)F)ccc1Nc1ccc2c(ccn2Cc2ccccc2)c1 [Example 32, 2-((1-benzyl-1H-indol-5-yl)amino)-5-(trifluoromethyl)benzoic acid]",≤ 0.01 µM,≥ 20%,≥ 50%
"O=C(O)c1nc(C2CC2)cnc1Nc1ccc2c(ccn2Cc2ccccc2)c1 [Example 71, 3-((1-benzyl-1H-indol-5-yl)amino)-6-cyclopropylpyrazine-2-carboxylic acid]",≤ 0.01 µM,≥ 20%,≥ 50%
"O=C(O)c1cc(C2CC2)ccc1Nc1ccc2c(ccn2Cc2cccc(OCC(F)(F)F)c2)c1 [Example 35, 5-cyclopropyl-2-((1-(3-(2,2,2-trifluoroethoxyl)benzyl)-1H-indol-5-yl)amino)benzoic acid]",≤ 0.01 µM,≥ 20%,≥ 50%
"O=C(O)c1cc(C2CC2)cnc1Nc1ccc2c(ccn2Cc2ccccc2)c1 [Example 37, 2-((1-benzyl-1H-indol-5-yl)amino)-5-cyclopropylnicotinic acid]",≤ 0.01 µM,≥ 20%,≥ 50%
"O=C(O)c1cc(C2CC2)cnc1Nc1ccc2c(c1)sc(=O)n2Cc1ccccc1 [Example 75, 2-((3-benzyl-2-oxo-2,3-dihydrobenzo[d]thiazol-6-yl)amino)-5-cyclopropylnicotinic acid]",≤ 0.01 µM,≥ 20%,≥ 50%
"O=C(O)c1cc(Cl)ccc1Nc1cccc2c1ccn2-c1ccccc1 [Example 275, 5-chloro-2-((1-phenyl-1H-indol-4-yl)amino)benzoic acid]",≤ 0.01 µM,≥ 20%,≥ 50%
"O=C(O)c1cc(C2CC2)ccc1Nc1ccc2c(ccn2Cc2ccccc2)c1 [Example 94, 2-((1-benzyl-1H-indol-5-yl)amino)-5-cyclopropylbenzoic acid]",≤ 0.01 µM,≥ 20%,≥ 50%
"O=C(O)c1cc(Cl)cnc1Nc1ccc2c(ccn2Cc2ccccc2)c1 [Example 90, 2-((1-benzyl-1H-indol-5-yl)amino)-5-chloronicotinic acid]",0.01 to 0.1 µM,≥ 20%,≥ 50%
"O=C(O)c1cc(C2CC2)cnc1Nc1ccc2c(ccn2-c2ccccc2)c1 [Example 39, 5-cyclopropyl-2-((1-phenyl-1H-indol-5-yl)amino)nicotinic acid]",≤ 0.01 µM,≥ 20%,≥ 50%
"O=C(O)c1cc(C2CC2)ccc1Nc1ccc2c(cnn2Cc2ccccc2)c1 [Example 29, 2-((1-benzyl-1H-indazol-5-yl)amino)-5-cyclopropylbenzoic acid]",≤ 0.01 µM,≥ 20%,≥ 50%

# Source: US9624215B2, “Amine derivative or salt thereof” (TOYAMA CHEMICAL CO., LTD., priority 2012, dated 2017)
